In the supplement of paper PMC10307832:

Experiments:
Test in all cases: relative viability (nuclei count vs DMSO), 5 days (fraction); higher = more cells survive
DM3189 + OSI-027 = compound: C1CN(CCN1)C2=CC=C(C=C2)C3=CN4C(=C(C=N4)C5=CC=NC6=CC=CC=C56)N=C3 [DM3189] + COc1cccc2cc(-c3nc([C@H]4CC[C@H](C(=O)O)CC4)n4ncnc(N)c34)[nH]c12 [OSI-027] (partner 0.5 µM)
Summary of the method: (§1)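 Relative viability divides the nuclei count in treated wells by that in vehicle wells. Lung cancer cell lines were seeded in 1536-well plates, dosed by pin tool the next day, and fixed and stained after 5 days in one step with final 0.05% Triton X-100, 1% formaldehyde and 1 ug/ml Hoechst. Dosing was a single drug or a fixed anchor-drug dose plus five library-drug doses (not always all listed) in √10 steps, and values are medians of duplicate plates imaged at 4×.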

DM3189 + Phenformin = compound: C1CN(CCN1)C2=CC=C(C=C2)C3=CN4C(=C(C=N4)C5=CC=NC6=CC=CC=C56)N=C3 [DM3189] + N=C(N)NC(=N)NCCc1ccccc1 [Phenformin] (partner 250 µM)
Summary of the method: as §1

DM3189 + Foretinib = compound: C1CN(CCN1)C2=CC=C(C=C2)C3=CN4C(=C(C=N4)C5=CC=NC6=CC=CC=C56)N=C3 [DM3189] + COc1cc2c(Oc3ccc(NC(=O)C4(C(=O)Nc5ccc(F)cc5)CC4)cc3F)ccnc2cc1OCCCN1CCOCC1 [Foretinib] (partner 0.25 µM)
Summary of the method: as §1

DM3189 + Alpelisib = compound: C1CN(CCN1)C2=CC=C(C=C2)C3=CN4C(=C(C=N4)C5=CC=NC6=CC=CC=C56)N=C3 [DM3189] + Cc1nc(NC(=O)N2CCC[C@H]2C(N)=O)sc1-c1ccnc(C(C)(C)C(F)(F)F)c1 [Alpelisib] (partner 2 µM)
Summary of the method: as §1

DM3189 + Crizotinib = compound: C1CN(CCN1)C2=CC=C(C=C2)C3=CN4C(=C(C=N4)C5=CC=NC6=CC=CC=C56)N=C3 [DM3189] + C[C@@H](Oc1cc(-c2cnn(C3CCNCC3)c2)cnc1N)c1c(Cl)ccc(F)c1Cl [Crizotinib] (partner 1 µM)
Summary of the method: as §1

Cell Line | relative viability (DM3189 + OSI-027; first compound 0.08 µM) | relative viability (DM3189 + OSI-027; first compound 0.253 µM) | relative viability (DM3189 + OSI-027; first compound 0.8 µM) | relative viability (DM3189 + OSI-027; first compound 2.53 µM) | relative viability (DM3189 + Phenformin; first compound 0.08 µM) | relative viability (DM3189 + Phenformin; first compound 0.253 µM) | relative viability (DM3189 + Phenformin; first compound 0.8 µM) | relative viability (DM3189 + Phenformin; first compound 2.53 µM) | relative viability (DM3189 + Foretinib; first compound 0.08 µM) | relative viability (DM3189 + Foretinib; first compound 0.253 µM) | relative viability (DM3189 + Foretinib; first compound 0.8 µM) | relative viability (DM3189 + Foretinib; first compound 2.53 µM) | relative viability (DM3189 + Alpelisib; first compound 0.08 µM) | relative viability (DM3189 + Alpelisib; first compound 0.253 µM) | relative viability (DM3189 + Alpelisib; first compound 0.8 µM) | relative viability (DM3189 + Alpelisib; first compound 2.53 µM) | relative viability (DM3189 + Crizotinib; first compound 0.08 µM) | relative viability (DM3189 + Crizotinib; first compound 0.253 µM) | relative viability (DM3189 + Crizotinib; first compound 0.8 µM) | relative viability (DM3189 + Crizotinib; first compound 2.53 µM)
201T | 0.88 | 0.763 | 0.512 | 0.747 | 0.482 | 0.429 | 0.388 | 0.431 | 1.01 | 1.03 | 0.73 | 1.27 | 1.05 | 1.02 | 1 | 1.05 | 1.06 | 1.03 | 1 | 1.07
A549 | – | – | – | – | 0.151 | 0.162 | 0.206 | 0.136 | 0.989 | 0.95 | 0.998 | 0.976 | 0.892 | 0.806 | 0.812 | 0.956 | 0.86 | 0.763 | 0.755 | 0.705
A-427 | 0.59 | 0.377 | 0.403 | 0.461 | 0.344 | 0.297 | 0.284 | 0.227 | 1.09 | 1.23 | 1.04 | 1.22 | 1.11 | 1.04 | 1.01 | 1.09 | 0.904 | 0.854 | 0.811 | 0.95
ABC-1 | 0.603 | 0.353 | 0.492 | 0.497 | 0.256 | 0.233 | 0.216 | 0.176 | 1.14 | 1.18 | 1.08 | 0.906 | 0.864 | 1.07 | 1.02 | 0.925 | 1.07 | 0.991 | 0.991 | 0.668
BEN | 0.389 | 0.323 | 0.315 | 0.309 | 0.237 | 0.312 | 0.268 | 0.287 | 0.79 | 0.582 | 0.533 | 0.734 | 0.917 | 1 | 1.03 | 0.934 | 0.881 | 0.865 | 0.944 | 0.987
CAL-12T | 0.829 | 0.629 | 0.869 | 1 | 0.588 | 0.571 | 0.526 | 0.703 | 1.2 | 1.07 | 1.13 | 1.12 | 1.42 | 1.14 | 1.41 | 1.43 | 0.508 | 0.658 | 0.704 | 0.543
COR-L23 | 0.887 | 0.715 | 0.576 | 0.625 | 0.472 | 0.439 | 0.402 | 0.408 | 1.12 | 0.844 | 0.828 | 0.993 | 0.749 | 0.634 | 0.645 | 0.636 | 0.633 | 0.455 | 0.679 | 0.583
COR-L 105 | 1.21 | 0.928 | 0.789 | 0.615 | 0.534 | 0.53 | 0.433 | 0.297 | 1.22 | 1.23 | 1.06 | 1.17 | 1.17 | 1.16 | 1.01 | 1.26 | 0.864 | 0.685 | 0.603 | 0.538
ChaGo-K-1 | 0.594 | 0.607 | 0.383 | 0.589 | 0.53 | 0.467 | 0.455 | 0.432 | 1.07 | 0.903 | 0.858 | 0.976 | – | – | – | – | 1.03 | 1.1 | 0.97 | 1.09
EKVX | 0.769 | 0.511 | 0.729 | 0.623 | 0.251 | 0.224 | 0.218 | 0.242 | 0.892 | 0.82 | 0.539 | 0.803 | 0.944 | 0.77 | 0.807 | 0.869 | 0.952 | 0.918 | 0.925 | 0.896
EMC-BAC-2 | 0.403 | 0.341 | 0.359 | 0.418 | 0.554 | 0.495 | 0.456 | 0.436 | 0.981 | 0.966 | 0.938 | 1.18 | 0.684 | 0.432 | 0.718 | 0.8 | 0.8 | 0.71 | 0.686 | 0.773
EPLC-272H | 0.356 | 0.261 | 0.238 | 0.254 | 0.284 | 0.293 | 0.25 | 0.276 | 0.677 | 0.67 | 0.783 | 0.59 | 0.876 | 1.1 | 0.916 | 0.838 | 0.97 | 0.96 | 0.941 | 0.821
H3255 | 0.875 | 0.541 | 0.625 | 0.611 | 0.305 | 0.422 | 0.338 | 0.376 | 1.13 | 0.936 | 0.764 | 0.85 | 0.834 | 0.739 | 0.681 | 0.847 | 1.09 | 0.818 | 0.623 | 0.845
HARA | 0.713 | 0.525 | 0.292 | 0.539 | 0.515 | 0.42 | 0.391 | 0.568 | 0.979 | 0.454 | 0.87 | 1.09 | 0.801 | 0.766 | 0.787 | 0.958 | 0.991 | 0.992 | 0.917 | 1.21
HCC-15 | 0.757 | 0.599 | 0.524 | 0.673 | 0.555 | 0.437 | 0.41 | 0.435 | 1.16 | 0.962 | 1 | 0.927 | 0.951 | 0.798 | 0.802 | 0.894 | 0.883 | 0.763 | 0.824 | 0.685
HCC-44 | 0.631 | 0.482 | 0.373 | 0.596 | 0.218 | 0.155 | 0.178 | 0.153 | – | – | – | – | 0.874 | 0.942 | 0.631 | 0.757 | 0.859 | 0.818 | 0.625 | 0.893
